Reference: patent US7678799B2 (Teva Pharmaceutical Industries Ltd., priority 2003, dated 2010)
Structures can show the parent of a compound that is named as a salt. Values belong to the compound of their own block, whether it stands above or below them.

Assays:
[1] = Storage at 0% relative humidity, crystal form by XRD; assay type: physicochemical; conditions: for transformed into Form M upon exposure to 0% relative humidity: 0% humidity, prolonged periods (such as 3 weeks)
From the text: (§1) In addition, no more than 5% of Form A transforms into Form M during heating and also during exposure to 0% relative humidity.
(§2) Ziprasidone HCl Form M, however, converts to the anhydrous form under heating (see table 1 and FIG. 8) or exposure to 0% relative humidity (see table 6 and FIG. 10).
(§3) This crystalline form may be sesquihydrate.
(§4) X-Ray powder diffraction data were obtained using by method known in the art using a SCINTAG powder X-Ray diffractometer model X'TRA equipped with a solid state detector. Copper radiation of 1.5418 Å was used. A round aluminum sample holder with round zero background quartz plate, with cavity of 25(diameter)*0.5(dept) mm. Detection limit: 5%.

[2] = Storage stability at 25, 40 and 55° C., crystal form by XRD; assay type: physicochemical
From the text: as §2, §3, §4

[3] = Specific surface area measurement (BET, Coulter SA3100); assay type: physicochemical; conditions: for Specific surface area: BET
From the text: Preferably, the SSA is about 5 to about 20 m^2/g.
Specific surface area measurement: • Instrument: Coulter SA3100 • Degassing: without • Sensitivity: high • Calculation: BET • Type: multipoint • Points: 10 • Sample cell: 9 and 12cm^3

[4] = Slurry of Form A in water or ethanol, transformation to Form M; assay type: physicochemical
[5] = Heating of crystalline ziprasidone HCl forms, crystal form by XRD; assay type: physicochemical; conditions: for Crystal form after heating at 80-105° C. overnight: HCl
From the text: as §1, §4

[6] = Equilibration of ziprasidone HCl form E at different relative humidities for 22 days (TGA, XRD); assay type: physicochemical; conditions: for TGA weight loss (water uptake) / Crystal form: 22 days
Method: The slurry temperature is preferably at least about 40° C. when using THF.
as §4
TGA analysis was done using a Mettler M3 meter. The weight of the samples was about 10 mg; the samples were scanned at a rate of 10° C./min from 25° C. to 200° C. The oven was constantly purged with nitrogen gas at a flow rate of 40 ml/min. Standard 70 μl alumina crucibles covered by lids with 1 hole were used.

[7] = cited from earlier work

- transformed into Form M upon exposure to 0% relative humidity ([1]; listed as solid crystalline ziprasidone HCl having a water content of about 4.6% to about ): No more than 5%
- transforms into Form M upon storage ([2]; 25, 40 and 55° C. for at least 3 months): No more than 5%
SMILES: O=C1Cc2cc(CCN3CCN(c4nsc5ccccc45)CC3)c(Cl)cc2N1 [Crystalline ziprasidone HCl having a water content of 4.6-6.]

- Specific surface area ([3]; cell volume = 9 cm^3, HCl): 3.908 m^2/g
- Specific surface area ([3]; cell volume = 9 cm^3, listed as Repetition of U.S. Pat. No. 6,150,366 procedure (comparative example 15), HCl): 3.908 m^2/g
SMILES: O=C1Cc2cc(CCN3CCN(c4nsc5ccccc45)CC3)c(Cl)cc2N1 [Example 15, ziprasidone HCl, reference compound]

- Specific surface area ([3]; cell volume = 9 cm^3, HCl): 5.461 m^2/g
- Specific surface area ([3]; cell volume = 9 cm^3, listed as Sample prepared according to example 16, HCl): 5.461 m^2/g
SMILES: O=C1Cc2cc(CCN3CCN(c4nsc5ccccc45)CC3)c(Cl)cc2N1 [Example 16, ziprasidone HCl]

- Specific surface area ([3]; cell volume = 12 cm^3, HCl): 14.646 m^2/g
- Specific surface area ([3]; cell volume = 12 cm^3, listed as Sample prepared according to example 17, HCl): 14.646 m^2/g
SMILES: O=C1Cc2cc(CCN3CCN(c4nsc5ccccc45)CC3)c(Cl)cc2N1 [Example 17, ziprasidone HCl]

- Specific surface area ([3]; cell volume = 12 cm^3, HCl): 18.831 m^2/g
- Specific surface area ([3]; cell volume = 12 cm^3, listed as Sample prepared according to example 18, HCl): 18.831 m^2/g
SMILES: O=C1Cc2cc(CCN3CCN(c4nsc5ccccc45)CC3)c(Cl)cc2N1 [Example 18, ziprasidone HCl]

- Specific surface area ([3]; cell volume = 9 cm^3, HCl): 11.335 m^2/g
- Specific surface area ([3]; cell volume = 9 cm^3, listed as Sample prepared according to example 19, HCl): 11.335 m^2/g
SMILES: O=C1Cc2cc(CCN3CCN(c4nsc5ccccc45)CC3)c(Cl)cc2N1 [Example 19, ziprasidone HCl]

- transformed into Form M upon exposure to 0% relative humidity ([1]; HCl): no more than 5%
- Crystal form upon storage at 0% relative humidity ([1]; HCl): Form A
- transformed into Form M upon storage under accelerated aging conditions ([2]; 40° C., 75% RH, at least about 6 months): no more than 5%
- specific surface area (SSA) ([3]; as measured by BET, general statement): higher than 4 m^2/g
- transforms to Form M ([4]; ethanol slurry): 95%
- Form A transformed into Form M ([4]; slurried in water): no more than 5%
- temperature of heating without a change in the crystal structure [5]: up to 140 °C
- Crystal form after heating at 80-105° C. overnight [5]: Form A
- Form A transformed into Form M during heating ([5]; heating): no more than 5%
SMILES: O=C1Cc2cc(CCN3CCN(c4nsc5ccccc45)CC3)c(Cl)cc2N1 [Form A, ziprasidone HCl]

- TGA weight loss (water uptake) ([6]; RH 0%): 5.3%
- TGA weight loss (water uptake) ([6]; RH 20%): 7.2%
- TGA weight loss (water uptake) ([6]; RH 40%): 4.8%
- TGA weight loss (water uptake) ([6]; RH 60%): 5.0%
- Crystal form ([6]; RH 80%): M + A
- TGA weight loss (water uptake) ([6]; RH 80%): 9.2%
- Crystal form ([6]; RH 100%): M + A + amorphous
- crystal form after exposure to relative humidity ([6]; relative humidity of about 20% to about 60% for about 22 days): Form A
SMILES: O=C1Cc2cc(CCN3CCN(c4nsc5ccccc45)CC3)c(Cl)cc2N1 [Form E, ziprasidone HCl]

- Crystal form upon storage at 0% relative humidity ([1]; HCl): Anhydrous
- Crystal form after heating at 80-105° C. overnight [5]: Anhydrous
SMILES: O=C1Cc2cc(CCN3CCN(c4nsc5ccccc45)CC3)c(Cl)cc2N1 [Form M, ziprasidone HCl, reference compound]

- Specific surface area ([3]; cell volume = 9 cm^3, HCl): 3.909 m^2/g
SMILES: O=C1Cc2cc(CCN3CCN(c4nsc5ccccc45)CC3)c(Cl)cc2N1 [Repetition of U.S. Pat. No. 5,312,925 Example 2] [ziprasidone HCl, reference compound]

- Specific surface area ([3]; cell volume = 9 cm^3, HCl): 2.135 m^2/g
SMILES: O=C1Cc2cc(CCN3CCN(c4nsc5ccccc45)CC3)c(Cl)cc2N1 [Repetition of U.S. Pat. No. 6,150,366 Example 10] [ziprasidone HCl, reference compound]

SMILES: O=C1Cc2cc(CCN3CCN(c4nsc5ccccc45)CC3)c(Cl)cc2N1 [Ziprasidone HCl]
- solubility in water [7]: 0.08 mg/mL
